IC50 data for one molecule are collected here from BindingDB's records for PubMed 37257213 (Birla Institute of Technology and Science Pilani).

For the test, the target named is Trypanothione reductase (UniProt P39050). Description: Inhibition of Leishmania donovani Trypanothione reductase.
Trypanothione reductase, sequence (P39050 whole entry): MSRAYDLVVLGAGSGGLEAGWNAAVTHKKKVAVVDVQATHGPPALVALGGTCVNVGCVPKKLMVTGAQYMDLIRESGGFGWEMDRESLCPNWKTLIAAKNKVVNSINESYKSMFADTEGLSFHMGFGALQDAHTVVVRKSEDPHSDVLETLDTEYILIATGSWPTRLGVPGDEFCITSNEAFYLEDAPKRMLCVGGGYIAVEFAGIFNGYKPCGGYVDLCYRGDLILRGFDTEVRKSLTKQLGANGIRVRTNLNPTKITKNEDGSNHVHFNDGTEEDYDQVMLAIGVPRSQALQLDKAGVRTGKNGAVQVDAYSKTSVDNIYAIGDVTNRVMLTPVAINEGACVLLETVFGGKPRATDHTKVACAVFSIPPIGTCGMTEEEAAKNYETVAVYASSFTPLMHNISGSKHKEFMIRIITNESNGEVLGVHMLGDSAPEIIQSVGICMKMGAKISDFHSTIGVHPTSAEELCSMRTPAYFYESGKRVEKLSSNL

In turn, `CN(C)c1ncnc2c1C1(CCCC1)Cc1ccccc1-2` [Name not given] returned an IC50 of 91 µM.
